What follows are compounds tested against Acetyl-CoA carboxylase 1 (Homo sapiens, UniProt Q13085) (assay: Inhibition of ACC1 in human HepG2 cells assessed as lipid content using 13C-labelled acetate as substrate incubated for 1 hr followed by substrate addition and measured after 24 hrs by QTOF mass spectrometer).
Assay type: cell-based
`COc1ccccc1[C@H](Cn1c(=O)n(C(C)(C)C(=O)NS(=O)(=O)C2(C)CC2)c(=O)c2c(C)c(-c3ncco3)sc21)O[C@@H]1C[C@H]2CC[C@@H](C1)O2` gave an EC50 of 1 nM. With `COc1ccc(F)cc1[C@H](Cn1c(=O)n(C(C)(C)C(=O)NS(=O)(=O)C2(C)CC2)c(=O)c2c(C)c(-n3nccn3)sc21)O[C@@H]1C[C@H]2CC[C@@H](C1)O2` the EC50 was 0.3 nM. `COc1ccccc1[C@H](Cn1c(=O)n(C(C)(C)C(=O)NS(=O)(=O)C2(C)CC2)c(=O)c2c(C)c(-n3nccn3)sc21)O[C@@H]1C[C@H]2CC[C@@H](C1)O2` gave an EC50 of 1 nM. In the case of `COc1ccccc1[C@H](Cn1c(=O)n([C@H](C)C(=O)NS(=O)(=O)C2(C)CC2)c(=O)c2c(C)c(-c3ncco3)sc21)O[C@@H]1C[C@H]2CC[C@@H](C1)O2`, the EC50 is reported as 1 nM. With `COc1ccccc1[C@H](Cn1c(=O)n(C2(C(=O)NS(=O)(=O)C3(C)CC3)CC2)c(=O)c2c(C)c(-n3nccn3)sc21)O[C@@H]1C[C@H]2CC[C@@H](C1)O2` the EC50 was 1 nM. `Cc1c(-n2nccn2)sc2c1c(=O)n(C1(C(=O)NS(=O)(=O)C3(C)CC3)CC1)c(=O)n2C[C@H](O[C@@H]1C[C@H]2CC[C@@H](C1)O2)c1cc(F)ccc1OC(F)F` gave an EC50 of 0.9 nM.
